Structures can show the parent of a compound that is named as a salt.
Tests used:
[1] = tested on: mouse; assay: Experiment of acute toxicity, oral administration; format: in vivo; settings: dose of more than 1000 mg/kg
Source text: In addition, compounds (I) and (I′) have low toxicity. […] Moreover, compounds (I) and (I′) easily penetrate into the brain following the oral administration.

[2] = tested on: Aβ1-40 production and/or secretion in human neuroblastoma IMR-32 cells; assay: Inhibition of amyloid-β protein production in IMR-32 cells, EIA for Aβ1-40; format: cell-based; settings: test compound 10 μM, 24 hours incubation, effect to inhibit production and/or secretion as percentage relative to the control
Description: (§1) Compounds of the present invention were tested for effect of inhibiting amyloid-β protein production in human neuroblastoma IMR-32 cells. Herein referred to were references, Science, 264, 1336 (1994) and Biochemistry, 34, 10272 (1995), etc.
(§2) IMR-32 cells were cultivated in a flask (Falcon, 750 ml) containing 10% FCS/DMEM medium, in an atmosphere of 10% CO2/90% air, at 37° C. to be in confluence. The cultivated cells were seeded into a 48-well plate in a density of 2.5×10^5 cells/well, and incubated therein for 3 days under the same condition as above. Then, the culture medium was removed through suction.
(§3) A dimethylformamide (DMF) solution containing a test compound was dissolved in 0.5 ml of 0.5% BSA/DMEM, and added to the plate, and the cells were incubated for further 24 hours. As the control, the same volume of DMF but not containing the test compound was dissolved in 0.5 ml of 0.5% BSA/DMEM, and added to the plate. […]
(§4) The plate was washed three times with PBS, and 100 μl of an HRP-labeled secondary antibody (BA-27 antibody or BC-05 antibody labeled with HRP, horseradish peroxidase) as dissolved in a buffer for secondary reaction (20 mM phosphate buffer, pH 7.0; 400 mM NaCl; 2 mM EDTA; 1% BSA) was added thereto. […] Then, using a plate reader (MTP-32 Microplate Reader, by Corona Co.), the sample on the plate was subjected to calorimetric determination (at 450 nm). […]

[3] = tested on: Aβ1-42 production and/or secretion in human neuroblastoma IMR-32 cells; assay: Inhibition of amyloid-β protein production in IMR-32 cells, EIA for Aβ1-42; format: cell-based; settings: test compound 10 μM, 24 hours incubation, effect to inhibit production and/or secretion as percentage relative to the control
Description: as §1, §2, §3, §4

Compound | melting point | also measured
Cl.c1ccc(C2CCN(CCC3CCc4cc(OCc5ccc6ccccc6c5)ccc4C3)CC2)cc1 (stereo not shown) | 229 to 234 °C (dec.) | –
CN(C)CC1CCc2cc(OCc3ccc(-c4ccc(C=O)cc4)cc3)ccc2C1.Cl (stereo not shown) | 234 to 235 °C | –
CSc1ccc(-c2ccc(COc3ccc4c(c3)CCC(CN(C)C)C4)cc2)cc1.Cl (stereo not shown) | 235 to 237 °C | –
CN(C)CC1CCc2cc(OCc3ccc(-c4ccc(F)cc4)cc3)ccc2C1.Cl (stereo not shown) | 223 to 234 °C | –
COc1ccccc1-c1ccc(COc2ccc3c(c2)CCC(CN(C)C)C3)cc1.Cl (stereo not shown) | 140 to 141 °C | –
CN(C)CC1CCc2cc(OCc3ccc(-c4cc(C(F)(F)F)cc(C(F)(F)F)c4)cc3)ccc2C1.Cl (stereo not shown) | 196 to 197 °C | –
CN(C)CC1CCc2cc(OCc3ccc(-c4cccs4)cc3)ccc2C1.Cl (stereo not shown) | 227 to 228 °C | –
CN(C)CC1CCc2cc(OCc3ccc(-c4ccccc4C#N)cc3)ccc2C1.Cl (stereo not shown) | 202 to 203 °C | –
CN(C)CC1CCc2cc(OCc3cccc(-c4ccccc4)c3)ccc2C1.Cl (stereo not shown) | 186 to 190 °C | –
COc1ccc(-c2cccc(COc3ccc4c(c3)CCC(CN(C)C)C4)c2)cc1.Cl (stereo not shown) | 182 to 183 °C | –
COc1ccc(-c2ccccc2COc2ccc3c(c2)CCC(CN(C)C)C3)cc1.Cl (stereo not shown) | 170 to 171 °C | –
CN(C)CC1CCc2cc(OCc3ccccc3-c3ccc(F)cc3)ccc2C1.Cl (stereo not shown) | 172 to 174 °C | –
CN(C)CC1CCc2ccc(OCc3ccc(-c4ccccc4)cc3)cc2C1.Cl (stereo not shown) | 232 to 233 °C | –
Cl.OC1(O)CCN(CCC2CCc3cc(OCc4ccc(-c5ccccc5)cc4)ccc3C2)CC1 (stereo not shown) | 155 to 156 °C | –
CN(C)CCCCC1CCc2cc(OCc3ccc(-c4ccccc4)cc3)ccc2C1.Cl (stereo not shown) | 175 to 177 °C | –
CN(C)CC1CCc2ccc(OCc3ccc4ccccc4c3)cc2C1.Cl (stereo not shown) | 201 to 202 °C | –
CNCC1CCc2cc(OCc3ccc(-c4ccccc4)cc3)ccc2C1.Cl (stereo not shown) | 189 to 190 °C | –
Cl.c1ccc2cc(COc3ccc4c(c3)CCC(CN3CCCCC3)C4)ccc2c1 (stereo not shown) | 215 to 218 °C (dec.) | –
CCCN(CCC)CC1CCc2cc(OCc3ccc(-c4ccccc4)cc3)ccc2C1.Cl (stereo not shown) | 164 to 166 °C | –
c1ccc(-c2ccc(COc3ccc4c(c3)CCC(CCN3CCC(N5CCCCC5)CC3)C4)cc2)cc1 (stereo not shown) (as salt: hydrochloride) | 288 to 291 °C | –
COc1ccc(-c2ccc(COc3ccc4c(c3)CCC(CCN(C)C)C4)cc2)cc1.Cl (stereo not shown) [44] | 182 to 185 °C | –
CN(C)CCC1CCc2cc(OCc3ccc(-c4ccccc4)cc3)ccc2C1.Cl (stereo not shown) [Example 12, 6-(4-Biphenylyl)methoxy-2-[2-(N,N-dimethylamino)ethyl]tetralin hydrochloride] | – | acute toxicity (death) [1]: no mouse was dead; Aβ1–40 (%) [2]: 74%; Aβ1–42 (%) [3]: 75%

Now from value to molecule, other results behind:

melting point | Compound | also measured
179 to 182 °C | CC(=O)N(Cc1ccc(-c2ccccc2)cc1)c1ccc2c(c1)CCC(CN(C)C)C2.Cl (stereo not shown) | –
226 to 228 °C | Cc1ccc(-c2ccc(COc3ccc4c(c3)CCC(CN(C)C)C4)cc2)cc1.Cl (stereo not shown) | –
228 to 229 °C | CN(C)CC1CCc2cc(OCc3ccc4ccccc4c3)ccc2C1.Cl (stereo not shown) | –
223 to 234 °C | CN(C)CC1CCc2cc(OCc3ccc(-c4cccc([N+](=O)[O-])c4)cc3)ccc2C1.Cl (stereo not shown) | –
207 to 208 °C | COc1cccc(-c2ccc(COc3ccc4c(c3)CCC(CN(C)C)C4)cc2)c1.Cl (stereo not shown) | –
222 to 223 °C | CN(C)CC1CCc2cc(OCc3ccc(-c4ccsc4)cc3)ccc2C1.Cl (stereo not shown) | –
171 to 172 °C | CN(C)CC1CCc2cc(OCc3cccc(-c4ccc(F)cc4)c3)ccc2C1.Cl (stereo not shown) | –
173 to 174 °C | CN(C)CC1CCc2cc(OCc3ccccc3-c3ccccc3)ccc2C1.Cl (stereo not shown) | –
197 to 199 °C | Cl.c1ccc(-c2ccc(COc3ccc4c(c3)CCC(CCN3CCCC3)C4)cc2)cc1 (stereo not shown) | –
212 to 213 °C | CN(C)CC1CCc2cc(OCc3ccc(-c4cccnc4)cc3)ccc2C1 (stereo not shown) (as salt: hydrochloride) | –
